# Results: ChEMBL document CHEMBL3885861, “Open TG-GATES”
# Species on record: Rattus norvegicus
# Assay: Open TG-GATES - Regimen: Single
# Assay type: toxicity, organism-based, Sprague-Dawley
# Parameters: regimen Single, gender Male, age 6 weeks
# Details: in vivo, po, 30 mg/kg, route gavage, dose level Low; for APTT / Bas / Eos / Fbg / Hb / Ht / Lym / MCHC / MCV / Mono / Neu / PT / Plat / RBC / Ret / WBC: tissue Blood; for KIDNEY_L / KIDNEY_R / KIDNEY_TOTAL: tissue Kidney; for LIVER: tissue Liver; for ALP / ALT / AST / BUN / CRE / Ca / Cl / DBIL / GLC / IP / K / LDH / Na / PL / RALB / TBIL / TC / TG / TP / gamma-GTP: tissue Plasma
smiles,measurement,setting,value
CS(=O)(=O)Nc1ccc([N+](=O)[O-])cc1Oc1ccccc1 [NIMESULIDE],TERMINAL_BW,3 h,200.4 g
same,APTT,3 h,16.6 s
same,Bas,3 h,0%
same,Eos,3 h,1%
same,Fbg,3 h,231 mg/dL
same,Hb,3 h,13.1 g/dL
same,Ht,3 h,39.1%
same,Lym,3 h,80.8%
same,MCHC,3 h,33.6%
same,MCV,3 h,63.4 fL
same,Mono,3 h,5%
same,Neu,3 h,13.4%
same,PT,3 h,12.5 s
same,Plat,3 h,127.7 x10_4/uL
same,RBC,3 h,616.4 x10_4/ul
same,Ret,3 h,11.7%
same,WBC,3 h,116.6 x10_2/uL
same,KIDNEY_L,3 h,0.9 g
same,KIDNEY_R,3 h,0.9 g
same,KIDNEY_TOTAL,3 h,1.8 g
same,LIVER,3 h,9 g
same,ALP,3 h,803 IU/L
same,ALT,3 h,39.6 IU/L
same,AST,3 h,69.8 IU/L
same,BUN,3 h,16.6 mg/dL
same,CRE,3 h,0.6 mg/dL
same,Ca,3 h,10.9 mg/dL
same,Cl,3 h,107.6 meq/L
same,DBIL,3 h,0.064 mg/dL
same,GLC,3 h,208.4 mg/dL
same,IP,3 h,9.2 mg/dL
same,K,3 h,5 meq/L
same,LDH,3 h,106 IU/L
same,Na,3 h,141.2 meq/L
same,PL,3 h,134.4 mg/dL
same,RALB,3 h,3.7 g/dL
same,TBIL,3 h,0.3 mg/dL
same,TC,3 h,78.2 mg/dL
same,TG,3 h,47.8 mg/dL
same,TP,3 h,5.2 g/dL
same,gamma-GTP,3 h,1.6 IU/L
same,TERMINAL_BW,6 h,196.1 g
same,APTT,6 h,17.4 s
same,Bas,6 h,0%
same,Eos,6 h,1%
same,Fbg,6 h,201.6 mg/dL
same,Hb,6 h,13.7 g/dL
same,Ht,6 h,40.5%
same,Lym,6 h,74.6%
same,MCHC,6 h,33.8%
same,MCV,6 h,65.6 fL
same,Mono,6 h,9.2%
same,Neu,6 h,15%
same,PT,6 h,12.6 s
same,Plat,6 h,111.4 x10_4/uL
same,RBC,6 h,618 x10_4/ul
same,Ret,6 h,10.6%
same,WBC,6 h,84.5 x10_2/uL
same,KIDNEY_L,6 h,0.9 g
same,KIDNEY_R,6 h,0.9 g
same,KIDNEY_TOTAL,6 h,1.8 g
same,LIVER,6 h,8.3 g
same,ALP,6 h,790 IU/L
same,ALT,6 h,33 IU/L
same,AST,6 h,62.2 IU/L
same,BUN,6 h,13.8 mg/dL
same,CRE,6 h,0.6 mg/dL
same,Ca,6 h,10.7 mg/dL
same,Cl,6 h,106.6 meq/L
same,DBIL,6 h,0.054 mg/dL
same,GLC,6 h,200 mg/dL
same,IP,6 h,10.2 mg/dL
same,K,6 h,5 meq/L
same,LDH,6 h,86.8 IU/L
same,Na,6 h,139.8 meq/L
same,PL,6 h,119.6 mg/dL
same,RALB,6 h,3.7 g/dL
same,TBIL,6 h,0.4 mg/dL
same,TC,6 h,68 mg/dL
same,TG,6 h,56.6 mg/dL
same,TP,6 h,5.2 g/dL
same,gamma-GTP,6 h,1.2 IU/L
same,TERMINAL_BW,9 h,200.7 g
same,APTT,9 h,16.7 s
same,Bas,9 h,0%
same,Eos,9 h,0.6%
same,Fbg,9 h,207.8 mg/dL
same,Hb,9 h,13.2 g/dL
same,Ht,9 h,39.5%
same,Lym,9 h,81.4%
same,MCHC,9 h,33.5%
same,MCV,9 h,66.3 fL
same,Mono,9 h,8.2%
same,Neu,9 h,10%
same,PT,9 h,12.3 s
same,Plat,9 h,111.8 x10_4/uL
same,RBC,9 h,596.2 x10_4/ul
same,Ret,9 h,11%
same,WBC,9 h,78.5 x10_2/uL
same,KIDNEY_L,9 h,1 g
same,KIDNEY_R,9 h,1 g
same,KIDNEY_TOTAL,9 h,1.9 g
same,LIVER,9 h,8.4 g
same,ALP,9 h,888.4 IU/L
same,ALT,9 h,30.8 IU/L
same,AST,9 h,61 IU/L
same,BUN,9 h,15 mg/dL
same,CRE,9 h,0.5 mg/dL
same,Ca,9 h,10.6 mg/dL
same,Cl,9 h,108 meq/L
same,DBIL,9 h,0.014 mg/dL
same,GLC,9 h,201 mg/dL
same,IP,9 h,10.2 mg/dL
same,K,9 h,4.9 meq/L
same,LDH,9 h,99 IU/L
same,Na,9 h,139.4 meq/L
same,PL,9 h,135.8 mg/dL
same,RALB,9 h,3.9 g/dL
same,TBIL,9 h,0.4 mg/dL
same,TC,9 h,78.2 mg/dL
same,TG,9 h,41 mg/dL
same,TP,9 h,5.3 g/dL
same,gamma-GTP,9 h,1.4 IU/L
same,TERMINAL_BW,24 h,212.5 g
same,APTT,24 h,17.2 s
same,Bas,24 h,0%
same,Eos,24 h,1.2%
same,Fbg,24 h,199.2 mg/dL
same,Hb,24 h,13.6 g/dL
same,Ht,24 h,40.7%
same,Lym,24 h,71.2%
same,MCHC,24 h,33.4%
same,MCV,24 h,63.8 fL
same,Mono,24 h,8.2%
same,Neu,24 h,19.4%
same,PT,24 h,11.7 s
same,Plat,24 h,109.8 x10_4/uL
same,RBC,24 h,638.4 x10_4/ul
same,Ret,24 h,10.3%
same,WBC,24 h,124.8 x10_2/uL
same,KIDNEY_L,24 h,0.9 g
same,KIDNEY_R,24 h,1 g
same,KIDNEY_TOTAL,24 h,1.9 g
same,LIVER,24 h,10.6 g
same,ALP,24 h,968.4 IU/L
same,ALT,24 h,44 IU/L
same,AST,24 h,68.8 IU/L
same,BUN,24 h,19.2 mg/dL
same,CRE,24 h,0.6 mg/dL
same,Ca,24 h,10.8 mg/dL
same,Cl,24 h,106 meq/L
same,DBIL,24 h,0.012 mg/dL
same,GLC,24 h,190.6 mg/dL
same,IP,24 h,7.6 mg/dL
same,K,24 h,4.9 meq/L
same,LDH,24 h,99.2 IU/L
same,Na,24 h,140.2 meq/L
same,PL,24 h,151.6 mg/dL
same,RALB,24 h,4 g/dL
same,TBIL,24 h,0.3 mg/dL
same,TC,24 h,81 mg/dL
same,TG,24 h,90 mg/dL
same,TP,24 h,5.5 g/dL
same,gamma-GTP,24 h,2 IU/L
